In paper PMC6501426 (Clinical Epigenetics, 2019):

How the values were obtained:
[1] = tested on: RPMI1788 (normal B lymphocytes); assay: Cell viability, trypan blue exclusion; type: cell-based; conditions: Homo sapiens, RPMI-1788; 48 h of treatment; normal cells; read-out: IC50 ± SD, cell viability, RPMI1788
Experimental: U-937 (acute myeloid leukemia), RAJI (Burkitt’s lymphoma), PC-3 (prostate cancer), and MDA-MB-231 (breast cancer) cell lines were obtained from the Deutsche Sammlung für Mikroorganismen and Zellkulturen (DSZM, Braunschweig, Germany) and were cultured in RPMI 1640 (Lonza, Verviers, Belgium) complemented with 10% FBS (Lonza, Verviers, Belgium) and 1% antibiotic-antimycotic (Lonza). RPMI1788 (normal B lymphocytes) and KG-1 (acute myeloid leukemia) cell lines were obtained from the American Type Culture Collection (ATCC) and were maintained in RPMI 1640 complemented with 20% FBS and IMDM complemented with 10% FBS, respectively. Cell lines were treated with compounds at the indicated concentrations in the exponential growth phase.
(§1) Proliferation and viability of U-937, KG-1, RAJI, PC-3, MDA-MB-231, RPMI1788, PBMCs, and PHA_PBMCs were assessed by trypan blue exclusion assays at the indicated time points. Nuclear morphology changes associated with apoptosis and necrosis were evaluated by fluorescence microscopy after Hoechst and propidium iodide (PI) staining as previously described.
IC50 values of compounds against cellular viability were determined by using nonlinear regression fitting curves with GraphPad Prism 8 or CalcuSyn software The t test used for statistical analyses was performed with GraphPad Prism 8. […]

[2] = tested on: DNMT3A protein level in HCT116 cells; assay: Western blot of DNMT3A protein in HCT116; type: cell-based, human; conditions: 24 h; MC3353 effect detectable at 0.1 μM
From the text: Cells were lysed in Laemmli buffer; subsequently, the proteins were resolved by sodium dodecyl sulfate-polyacrylamide gel electrophoresis and transferred to a 0.45-μm nitrocellulose membrane (Bio-Rad Laboratories, Hercules, CA). The following primary antibodies were used for immunoblotting: α-E-cadherin (BD Transduction Laboratories, Franklin Lakes, NJ), α-MMP2 (Abcam), α-DNMT3a (Santa Cruz Biotechnologies, Dallas, TX), and α-GAPDH (Millipore Corp., Bedford, MA), used as a loading control. The immune complexes were detected with horseradish peroxidase-conjugated species-specific secondary antiserum (Bio-Rad Laboratories, Milan, Italy) then by enhanced chemiluminescence reaction (Bio-Rad Laboratories, Milan, Italy). Densitometric analysis of protein expression was performed by using the Fiji ImageJ image processing package.
GAPDH was used as a loading control. Blots are representative of two independent experiments

RPMI1788 cells = assay: Nuclear morphology analysis (Hoechst/PI); type: cell-based; conditions: 72 h; starting from 5 μM; normal cells
Experimental: as §1
Fig. 6 Nuclear morphology analysis in U-937, RAJI, KG-1, and RPMI1788 cells. Cells were treated with increasing doses of MC3353. Upper panels—after 72 h of treatment, the nuclear morphology was analyzed by fluorescence microscopy after Hoechst and PI staining. Pictures are representative of three independent experiments. Lower panels—the results of cell counting are represented as the mean (± SD) of three independent experiments

Saos-2 cells = assay: Saos-2 matrix mineralization, Alizarin red staining; type: cell-based, human; conditions: 7–21 days, differentiation medium
Experimental: Four days after seeding, Saos-2 cells were exposed to specific osteogenic medium (IMDM supplemented with 2% FBS, 5 mM β-glycerophosphate, and 50 μg/mL ascorbic acid, Sigma-Aldrich, Milan, Italy) without (control) or with MC3353 (0.5–1 μM) or DAC (0.1–0.5 μM) and maintained in differentiating conditions for up to 21 days. The medium was renewed every 4 days, and the cells were harvested at various time points to collect total RNA and verify bone mineralization. Specific osteoblastic markers were evaluated by quantitative real-time PCR (RT-qPCR) as previously described. The primers or assays (Applied Biosystems, Foster City, CA, USA) used are as follows: GAPDH (forward: 5′-[…]-3′, reverse: 5′-[…]-3′ and probe: 5′-[…]-3′), OCN (forward: 5′-[…]-3′, reverse: 5′-[…]-3′), ALP (Hs01029144_m1), and COL1A2 (Hs01028970_m1). Amplification reactions were performed using a ViiA7™ Real-Time PCR System (Life Technologies, Carlsbad, CA, USA). To visualize bone mineralization (osteoblastic differentiation) after 7–21 days of MC3353 or DAC treatment, the plates were stained with 40 mM Alizarin red stain (ARS, Sigma-Aldrich, Milan, Italy). ARS staining was visualized with an ECLIPSE 90i microscope (Nikon, Minato, Tokyo, Japan) equipped with Plan fluor 10× NA 0.3. […]

human C-terminal DNMT3A = target: T1, human C-terminal DNMT3A (Homo sapiens, UniProt Q9Y6K1); assay: DNMT3A restriction-based fluorescence assay; type: biochemical
T1 construct: the C-terminal catalytic domain of human DNMT3A (hDNMT3A)
T1 sequence (Q9Y6K1 634-912 limits assumed): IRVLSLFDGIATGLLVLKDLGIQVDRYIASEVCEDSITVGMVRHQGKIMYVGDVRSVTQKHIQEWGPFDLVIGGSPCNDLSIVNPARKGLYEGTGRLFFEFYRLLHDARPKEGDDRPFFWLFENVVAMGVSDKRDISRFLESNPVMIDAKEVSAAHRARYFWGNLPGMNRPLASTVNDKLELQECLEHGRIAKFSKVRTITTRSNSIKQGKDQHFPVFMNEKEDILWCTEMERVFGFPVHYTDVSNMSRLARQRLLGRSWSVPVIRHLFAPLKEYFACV
Experimental: DNMT3A enzyme inhibition was adapted from the restriction-based fluorescence assay protocol described in Ceccaldi et al.. Briefly, it is performed in a 384-well microplate in a total volume of 50 μL. An oligonucleotide labeled at the 5′ end with biotin is hybridized to his complementary strand labeled at the 3′ end with 6-carboxyfluorescein. The DNA duplex thus formed contains only one single CpG site overlapping with a restriction site of a methylation sensitive restriction enzyme. The duplex is transferred in the wells coated with avidin. Thus, the duplex is fixed to the plate. The methylation reaction is performed by adding human C-terminal DNMT3A at the final concentration of 4 ng/μL in a total volume of 50 μL in the presence of the chemical compound to be tested at the desired concentration and the cofactor SAM at the final concentration of 20 μM. After incubation (1 h at 37 °C), the plate is washed and the methylation sensitive restriction enzyme HpyCH4IV is added. After 1-h incubation at 37 °C, the plate is washed and the fluorescence measured with a PerkinElmer Envision Multilabel Plate Reader (PerkinElmer, Villebon-sur-Yvette, France). The data are expressed as a percentage of inhibition vs. log concentration (M). Data are normalized referring to the “restriction control” (wells coated with labeled duplex not treated nor exposed to DNMT3A, but only cleaved by HpyCH4IV) as the maximum of inhibition (100%) and to the “DMSO control” (wells coated with labeled duplex but treated just with 0.1% DMSO exposed to DNMT3A and then to HpyCH4IV) as the minimum of inhibition (0%; total methylation).

## O=C(Nc1ccc(NC(=O)c2ccc(Nc3ccnc4ccccc34)cc2)cc1)OCc1ccccc1 [MC3353, Benzyl (4-(4-(quinolin-4-ylamino)benzamido)phenyl)carbamate]
[1]
  IC50: 2.4 ± 0.2 µM
[2]
  DNMT3A protein expression level (western blot), HCT116: DNMT3A protein downregulation was observed
RPMI1788 cells
  cell death modality, RPMI1788: mixed type of cell death induction, mainly necrosis
Saos-2 cells
  mineralized matrix production (ARS staining), Saos-2: augment mineralized matrix production
Human C-terminal DNMT3A; fluorescent assay, C-terminal catalytic domain, read-out: EC50 ± SD, hDNMT3A
  EC50: 17 ± 3 µM
Human C-terminal DNMT3A; ratio of EC50 values
  fold higher potency than RG-108 against hDNMT3A: > 29 fold
  fold lower potency than SGI-1027 against hDNMT3A: 20 fold
